Laboratory results reported in ChEMBL document CHEMBL4184146, “Interrogating the Roles of Post-Translational Modifications of Non-Histone Proteins” (J Med Chem, 2018).
Each block holds one compound with its values, some of them ahead of it.

Tests used:
Protein O-GlcNAcase = biological target: T1, Protein O-GlcNAcase (Rattus norvegicus, UniProt Q8VIJ5); assay: Inhibition of O-GlcNAcase in rat PC12 cells assessed as induction of OGlcNAcylation after 24 hrs by Western blot method; assay type: cell-based
T1 sequence (Q8VIJ5 whole entry): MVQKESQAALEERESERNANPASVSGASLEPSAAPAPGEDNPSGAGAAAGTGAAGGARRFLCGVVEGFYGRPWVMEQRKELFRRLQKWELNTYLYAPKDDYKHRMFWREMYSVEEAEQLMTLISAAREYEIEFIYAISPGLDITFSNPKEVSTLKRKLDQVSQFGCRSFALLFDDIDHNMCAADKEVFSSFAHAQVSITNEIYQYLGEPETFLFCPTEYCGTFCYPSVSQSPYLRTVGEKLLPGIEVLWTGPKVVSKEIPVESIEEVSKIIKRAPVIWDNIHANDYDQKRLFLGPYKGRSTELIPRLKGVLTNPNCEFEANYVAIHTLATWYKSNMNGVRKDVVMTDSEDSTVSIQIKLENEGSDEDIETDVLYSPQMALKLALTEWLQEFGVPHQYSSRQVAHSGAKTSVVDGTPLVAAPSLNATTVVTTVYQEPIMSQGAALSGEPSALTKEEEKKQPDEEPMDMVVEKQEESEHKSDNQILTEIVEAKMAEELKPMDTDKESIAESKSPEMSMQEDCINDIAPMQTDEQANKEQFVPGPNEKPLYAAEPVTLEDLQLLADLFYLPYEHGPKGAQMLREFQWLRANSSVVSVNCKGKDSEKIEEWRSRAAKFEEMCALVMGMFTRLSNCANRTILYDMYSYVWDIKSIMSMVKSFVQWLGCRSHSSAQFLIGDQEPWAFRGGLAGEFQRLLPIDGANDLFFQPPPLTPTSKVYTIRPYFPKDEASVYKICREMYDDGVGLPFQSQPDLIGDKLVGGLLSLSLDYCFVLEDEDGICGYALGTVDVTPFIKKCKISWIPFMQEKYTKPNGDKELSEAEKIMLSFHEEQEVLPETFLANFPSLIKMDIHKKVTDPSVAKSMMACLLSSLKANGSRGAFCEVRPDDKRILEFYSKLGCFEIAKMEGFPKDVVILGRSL

[1] = biological target: Protein farnesyltransferase (Homo sapiens, UniProt P49354+P49356); assay: Inhibition of FTase isolated from human Burkitt's lymphoma cells assessed as decrease in transfer of [3H]farnesyl from [3H]farnesyl PPi to H-Ras-CVLS
[2] = Inhibition of SCF (SKP2) complex (unknown origin) expressed in baculovirus infected Sf9 cells assessed as decrease in phospho-p27 Kip1 ubiquitination preincubated for 10 to 45 mins followed by phospho-p27 Kip1 addition measured after 1 to 3 hrs by immunoblot method; set-up: species or system Homo sapiens
[3] = biological target: Histone acetyltransferase p300 (Homo sapiens, UniProt Q09472); assay: Inhibition of full length His6-tagged recombinant p300 (unknown origin) expressed in baculovirus infected Sf21 cells using human histone as substrate preincubated for 10 mins followed by [3H]acetyl-CoA addition measured after 10 mins by liquid scintillation counting method
Chain of Histone acetyltransferase p300 (Q09472 whole entry): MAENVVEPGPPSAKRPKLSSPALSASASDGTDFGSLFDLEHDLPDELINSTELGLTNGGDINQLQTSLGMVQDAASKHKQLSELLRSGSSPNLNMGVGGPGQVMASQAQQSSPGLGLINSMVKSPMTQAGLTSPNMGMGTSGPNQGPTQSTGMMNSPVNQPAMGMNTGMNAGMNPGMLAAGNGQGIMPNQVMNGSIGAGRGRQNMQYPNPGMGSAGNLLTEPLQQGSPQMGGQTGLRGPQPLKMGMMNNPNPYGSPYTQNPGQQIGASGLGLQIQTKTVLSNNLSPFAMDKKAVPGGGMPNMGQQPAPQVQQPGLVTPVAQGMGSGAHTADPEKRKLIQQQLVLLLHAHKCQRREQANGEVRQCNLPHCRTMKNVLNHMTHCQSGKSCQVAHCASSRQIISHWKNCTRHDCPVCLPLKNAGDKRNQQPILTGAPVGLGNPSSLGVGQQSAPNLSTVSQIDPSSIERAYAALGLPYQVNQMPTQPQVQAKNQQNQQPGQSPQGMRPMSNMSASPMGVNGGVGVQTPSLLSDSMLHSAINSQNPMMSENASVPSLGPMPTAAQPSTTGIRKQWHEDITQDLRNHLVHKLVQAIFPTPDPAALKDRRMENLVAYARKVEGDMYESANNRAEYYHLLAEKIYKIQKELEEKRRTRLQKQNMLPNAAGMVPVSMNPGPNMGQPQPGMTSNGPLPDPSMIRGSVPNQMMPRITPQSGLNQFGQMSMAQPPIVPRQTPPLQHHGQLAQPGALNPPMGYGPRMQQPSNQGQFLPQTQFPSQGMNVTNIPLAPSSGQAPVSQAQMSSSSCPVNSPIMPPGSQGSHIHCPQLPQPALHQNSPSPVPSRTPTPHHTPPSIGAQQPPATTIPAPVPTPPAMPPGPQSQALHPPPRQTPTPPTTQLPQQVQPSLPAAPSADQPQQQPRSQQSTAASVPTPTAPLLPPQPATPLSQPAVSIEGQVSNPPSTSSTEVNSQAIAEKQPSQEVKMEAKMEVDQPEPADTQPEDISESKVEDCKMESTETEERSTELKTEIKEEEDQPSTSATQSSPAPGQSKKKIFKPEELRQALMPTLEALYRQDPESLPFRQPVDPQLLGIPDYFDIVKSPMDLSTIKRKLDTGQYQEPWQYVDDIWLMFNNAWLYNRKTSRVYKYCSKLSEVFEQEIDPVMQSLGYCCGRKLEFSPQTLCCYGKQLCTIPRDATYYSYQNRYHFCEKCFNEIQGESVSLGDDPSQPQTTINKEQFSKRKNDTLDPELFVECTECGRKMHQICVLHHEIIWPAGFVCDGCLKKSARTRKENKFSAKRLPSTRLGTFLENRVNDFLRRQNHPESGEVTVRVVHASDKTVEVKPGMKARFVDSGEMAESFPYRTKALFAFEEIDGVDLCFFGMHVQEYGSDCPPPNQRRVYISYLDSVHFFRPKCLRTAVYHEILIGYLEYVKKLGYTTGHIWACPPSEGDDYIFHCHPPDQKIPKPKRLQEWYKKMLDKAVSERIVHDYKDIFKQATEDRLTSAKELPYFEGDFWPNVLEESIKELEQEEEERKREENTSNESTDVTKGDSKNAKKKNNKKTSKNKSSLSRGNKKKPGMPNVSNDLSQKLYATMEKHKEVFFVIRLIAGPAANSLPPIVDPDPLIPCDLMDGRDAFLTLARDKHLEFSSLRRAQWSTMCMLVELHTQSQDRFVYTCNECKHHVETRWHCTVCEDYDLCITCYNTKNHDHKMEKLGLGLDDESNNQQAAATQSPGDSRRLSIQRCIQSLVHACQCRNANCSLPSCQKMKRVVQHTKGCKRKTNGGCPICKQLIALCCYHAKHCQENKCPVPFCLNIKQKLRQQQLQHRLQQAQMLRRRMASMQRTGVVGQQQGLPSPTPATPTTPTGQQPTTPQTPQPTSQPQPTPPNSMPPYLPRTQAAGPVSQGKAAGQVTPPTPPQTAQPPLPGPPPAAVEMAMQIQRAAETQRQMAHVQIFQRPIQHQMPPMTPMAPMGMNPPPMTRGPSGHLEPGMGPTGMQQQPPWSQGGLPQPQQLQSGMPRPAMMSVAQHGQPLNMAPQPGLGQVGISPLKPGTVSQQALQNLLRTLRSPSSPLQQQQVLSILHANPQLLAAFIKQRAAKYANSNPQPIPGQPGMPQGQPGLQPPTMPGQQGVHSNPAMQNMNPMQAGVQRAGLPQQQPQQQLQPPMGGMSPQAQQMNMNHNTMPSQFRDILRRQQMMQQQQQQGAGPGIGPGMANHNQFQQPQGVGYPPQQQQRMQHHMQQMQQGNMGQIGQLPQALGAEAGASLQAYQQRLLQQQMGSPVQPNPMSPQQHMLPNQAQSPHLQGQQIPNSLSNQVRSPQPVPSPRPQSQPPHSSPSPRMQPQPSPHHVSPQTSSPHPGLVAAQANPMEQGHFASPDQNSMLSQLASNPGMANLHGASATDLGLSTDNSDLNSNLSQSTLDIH

[4] = biological target: c-Jun N-terminal kinase, JNK (Homo sapiens, UniProt P45983+P53779+P45984); assay: Inhibition of JNK (unknown origin); assay type: protein assay
Sharpin/RBCK1/RNF31 = biological target: T2, Sharpin/RBCK1/RNF31 (Homo sapiens, UniProt Q96EP0+Q9BYM8+Q9H0F6); assay: Inhibition of petit-LUBAC (unknown origin)-mediated ubiquitylation expressed in Escherichia coli BL21 after 2 hrs in presence of E1, UbcH5c, E3 and ubiquitin
T2 sequence (Q9H0F6 whole entry): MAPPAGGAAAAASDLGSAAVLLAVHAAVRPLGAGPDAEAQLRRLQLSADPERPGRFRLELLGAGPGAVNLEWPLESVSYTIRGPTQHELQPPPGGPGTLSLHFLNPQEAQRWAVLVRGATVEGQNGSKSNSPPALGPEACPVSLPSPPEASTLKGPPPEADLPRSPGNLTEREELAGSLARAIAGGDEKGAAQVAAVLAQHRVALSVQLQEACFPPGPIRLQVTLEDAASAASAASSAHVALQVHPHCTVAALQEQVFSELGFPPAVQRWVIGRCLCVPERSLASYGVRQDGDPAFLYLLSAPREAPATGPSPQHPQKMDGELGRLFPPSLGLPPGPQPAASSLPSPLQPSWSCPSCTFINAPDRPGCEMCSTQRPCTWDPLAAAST
T2 sequence (Q9BYM8 whole entry): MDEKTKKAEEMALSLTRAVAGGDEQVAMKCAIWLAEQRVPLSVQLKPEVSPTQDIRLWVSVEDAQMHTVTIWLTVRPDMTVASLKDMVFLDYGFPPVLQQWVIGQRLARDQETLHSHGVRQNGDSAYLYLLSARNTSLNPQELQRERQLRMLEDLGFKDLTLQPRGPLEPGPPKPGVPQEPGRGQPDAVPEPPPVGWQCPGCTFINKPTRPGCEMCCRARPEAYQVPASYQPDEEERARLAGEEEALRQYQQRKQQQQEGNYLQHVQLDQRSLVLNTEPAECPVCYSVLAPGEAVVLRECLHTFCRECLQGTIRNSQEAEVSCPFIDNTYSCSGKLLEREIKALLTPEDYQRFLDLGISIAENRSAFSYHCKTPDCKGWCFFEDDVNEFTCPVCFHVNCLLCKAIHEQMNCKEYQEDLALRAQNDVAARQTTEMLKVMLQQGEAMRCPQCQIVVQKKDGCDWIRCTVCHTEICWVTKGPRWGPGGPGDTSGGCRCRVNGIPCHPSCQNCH
T2 sequence (Q96EP0 whole entry): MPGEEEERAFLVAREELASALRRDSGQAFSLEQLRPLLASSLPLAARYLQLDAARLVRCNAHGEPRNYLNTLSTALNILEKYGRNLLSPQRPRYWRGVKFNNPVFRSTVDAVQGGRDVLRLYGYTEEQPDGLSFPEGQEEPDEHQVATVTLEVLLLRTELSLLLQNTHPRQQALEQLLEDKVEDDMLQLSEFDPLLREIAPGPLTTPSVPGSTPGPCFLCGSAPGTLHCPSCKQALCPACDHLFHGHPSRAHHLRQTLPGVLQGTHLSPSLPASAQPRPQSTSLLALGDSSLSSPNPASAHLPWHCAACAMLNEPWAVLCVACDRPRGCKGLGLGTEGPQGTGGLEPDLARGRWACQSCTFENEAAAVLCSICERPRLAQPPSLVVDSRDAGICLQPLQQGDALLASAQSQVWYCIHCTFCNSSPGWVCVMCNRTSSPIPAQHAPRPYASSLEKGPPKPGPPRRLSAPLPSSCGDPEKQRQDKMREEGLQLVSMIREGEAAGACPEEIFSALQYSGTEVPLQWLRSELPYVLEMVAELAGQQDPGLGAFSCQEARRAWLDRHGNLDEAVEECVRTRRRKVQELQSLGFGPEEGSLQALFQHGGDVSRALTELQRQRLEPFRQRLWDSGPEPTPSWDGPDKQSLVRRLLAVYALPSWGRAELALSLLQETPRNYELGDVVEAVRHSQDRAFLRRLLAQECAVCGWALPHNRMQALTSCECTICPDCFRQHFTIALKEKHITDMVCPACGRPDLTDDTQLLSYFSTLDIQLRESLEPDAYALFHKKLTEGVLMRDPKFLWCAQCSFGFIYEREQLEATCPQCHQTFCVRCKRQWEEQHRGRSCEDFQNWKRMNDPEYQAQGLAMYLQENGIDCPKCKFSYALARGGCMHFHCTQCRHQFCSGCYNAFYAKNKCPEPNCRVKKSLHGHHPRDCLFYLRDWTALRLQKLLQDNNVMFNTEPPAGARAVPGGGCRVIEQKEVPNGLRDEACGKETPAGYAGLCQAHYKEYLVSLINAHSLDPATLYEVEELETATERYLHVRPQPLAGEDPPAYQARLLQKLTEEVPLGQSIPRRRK

[5] = biological target: Serine/threonine-protein kinase B-raf (Homo sapiens, UniProt P15056); assay: Inhibition of BRAF (unknown origin) using MEK1 K97R mutant as substrate preincubated for 60 to 120 mins followed by substrate addition measured after 2 hrs by TR-FRET assay
Chain of Serine/threonine-protein kinase B-raf (P15056 whole entry): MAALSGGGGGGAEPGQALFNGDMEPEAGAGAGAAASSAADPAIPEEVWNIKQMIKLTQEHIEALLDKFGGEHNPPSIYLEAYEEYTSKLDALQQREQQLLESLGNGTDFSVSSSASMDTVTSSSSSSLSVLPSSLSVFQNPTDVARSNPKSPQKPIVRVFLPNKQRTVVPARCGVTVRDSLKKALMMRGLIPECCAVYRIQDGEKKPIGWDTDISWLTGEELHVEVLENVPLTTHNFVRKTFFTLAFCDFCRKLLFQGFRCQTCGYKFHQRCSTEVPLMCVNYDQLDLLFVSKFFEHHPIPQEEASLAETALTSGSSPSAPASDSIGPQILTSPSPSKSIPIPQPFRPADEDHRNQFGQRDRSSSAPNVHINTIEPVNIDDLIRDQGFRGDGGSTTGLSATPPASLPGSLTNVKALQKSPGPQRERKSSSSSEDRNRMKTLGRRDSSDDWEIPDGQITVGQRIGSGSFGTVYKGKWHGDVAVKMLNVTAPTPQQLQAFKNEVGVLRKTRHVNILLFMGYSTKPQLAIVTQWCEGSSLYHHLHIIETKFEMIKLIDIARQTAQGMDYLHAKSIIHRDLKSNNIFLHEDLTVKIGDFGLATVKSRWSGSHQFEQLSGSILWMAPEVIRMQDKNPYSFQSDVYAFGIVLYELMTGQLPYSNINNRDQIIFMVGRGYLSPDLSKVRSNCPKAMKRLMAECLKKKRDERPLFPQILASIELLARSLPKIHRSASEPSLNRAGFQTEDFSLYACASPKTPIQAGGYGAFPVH

[6] = biological target: T3, Ubiquitin-like modifier-activating enzyme ATG7 (Homo sapiens, UniProt O95352); assay: Inhibition of ATG7 (unknown origin) assessed as decrease in formation of E2-UBL thioester reaction product
T3 sequence (O95352 whole entry): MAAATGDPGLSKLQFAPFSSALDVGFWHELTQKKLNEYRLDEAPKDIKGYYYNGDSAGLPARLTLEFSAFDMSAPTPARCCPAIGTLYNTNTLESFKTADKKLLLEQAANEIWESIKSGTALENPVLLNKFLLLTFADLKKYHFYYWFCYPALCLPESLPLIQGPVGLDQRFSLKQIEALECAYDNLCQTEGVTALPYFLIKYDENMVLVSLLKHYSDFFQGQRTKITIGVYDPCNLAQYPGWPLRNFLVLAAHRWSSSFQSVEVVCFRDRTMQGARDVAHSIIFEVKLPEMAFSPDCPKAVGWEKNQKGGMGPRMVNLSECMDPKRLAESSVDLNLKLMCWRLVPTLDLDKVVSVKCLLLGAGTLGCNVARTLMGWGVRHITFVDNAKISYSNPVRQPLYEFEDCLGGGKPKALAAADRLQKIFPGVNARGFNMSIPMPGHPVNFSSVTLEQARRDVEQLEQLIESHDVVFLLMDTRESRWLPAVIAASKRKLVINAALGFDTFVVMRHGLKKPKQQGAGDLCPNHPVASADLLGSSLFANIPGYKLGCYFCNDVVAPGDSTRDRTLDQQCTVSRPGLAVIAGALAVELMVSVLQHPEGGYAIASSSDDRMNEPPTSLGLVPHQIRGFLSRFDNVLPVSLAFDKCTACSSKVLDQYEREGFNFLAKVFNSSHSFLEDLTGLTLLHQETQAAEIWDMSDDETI

[7] = Inhibition of UAE (unknown origin) assessed as decrease in formation of E2-UBL thioester reaction product; set-up: species or system Homo sapiens
SUMO-activating enzyme = SUMO-activating enzyme (Homo sapiens, UniProt Q9UBT2); assay: Inhibition of SAE (unknown origin) assessed as decrease in formation of E2-UBL thioester reaction product; assay type: protein-complex assay
Chain of SUMO-activating enzyme (Q9UBE0 whole entry): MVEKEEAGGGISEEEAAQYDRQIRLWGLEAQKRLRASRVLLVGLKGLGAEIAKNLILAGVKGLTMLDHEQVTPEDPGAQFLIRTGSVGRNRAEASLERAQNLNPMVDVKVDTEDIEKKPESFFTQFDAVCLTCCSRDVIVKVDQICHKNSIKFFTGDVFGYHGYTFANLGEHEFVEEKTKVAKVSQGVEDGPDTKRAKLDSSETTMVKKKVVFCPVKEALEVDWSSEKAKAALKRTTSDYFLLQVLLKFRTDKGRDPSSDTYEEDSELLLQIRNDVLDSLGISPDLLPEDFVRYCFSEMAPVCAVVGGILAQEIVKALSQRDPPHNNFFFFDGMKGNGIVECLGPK
Chain of SUMO-activating enzyme (Q9UBT2 whole entry): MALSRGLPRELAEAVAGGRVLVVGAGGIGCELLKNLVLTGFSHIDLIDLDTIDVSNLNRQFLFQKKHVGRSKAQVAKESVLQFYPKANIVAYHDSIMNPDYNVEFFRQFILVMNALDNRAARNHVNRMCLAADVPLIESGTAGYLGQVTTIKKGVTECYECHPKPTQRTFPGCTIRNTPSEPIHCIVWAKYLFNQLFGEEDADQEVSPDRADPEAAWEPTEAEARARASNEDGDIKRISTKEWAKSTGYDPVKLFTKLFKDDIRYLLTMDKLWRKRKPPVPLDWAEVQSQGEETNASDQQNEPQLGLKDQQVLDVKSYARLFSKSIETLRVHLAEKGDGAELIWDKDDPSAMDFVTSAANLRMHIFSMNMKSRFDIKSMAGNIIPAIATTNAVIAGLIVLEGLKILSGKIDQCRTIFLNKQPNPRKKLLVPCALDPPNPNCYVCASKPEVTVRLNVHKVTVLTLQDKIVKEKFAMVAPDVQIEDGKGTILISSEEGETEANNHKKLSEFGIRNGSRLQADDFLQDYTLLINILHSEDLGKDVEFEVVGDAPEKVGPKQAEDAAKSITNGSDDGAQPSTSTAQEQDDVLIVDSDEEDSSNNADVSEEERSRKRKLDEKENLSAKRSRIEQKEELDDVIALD

[8] = biological target: T4, Ubiquitin-like modifier-activating enzyme 6 (Homo sapiens, UniProt A0AVT1); assay: Inhibition of UBA6 (unknown origin) assessed as decrease in formation of E2-UBL thioester reaction product
T4 sequence (A0AVT1 whole entry): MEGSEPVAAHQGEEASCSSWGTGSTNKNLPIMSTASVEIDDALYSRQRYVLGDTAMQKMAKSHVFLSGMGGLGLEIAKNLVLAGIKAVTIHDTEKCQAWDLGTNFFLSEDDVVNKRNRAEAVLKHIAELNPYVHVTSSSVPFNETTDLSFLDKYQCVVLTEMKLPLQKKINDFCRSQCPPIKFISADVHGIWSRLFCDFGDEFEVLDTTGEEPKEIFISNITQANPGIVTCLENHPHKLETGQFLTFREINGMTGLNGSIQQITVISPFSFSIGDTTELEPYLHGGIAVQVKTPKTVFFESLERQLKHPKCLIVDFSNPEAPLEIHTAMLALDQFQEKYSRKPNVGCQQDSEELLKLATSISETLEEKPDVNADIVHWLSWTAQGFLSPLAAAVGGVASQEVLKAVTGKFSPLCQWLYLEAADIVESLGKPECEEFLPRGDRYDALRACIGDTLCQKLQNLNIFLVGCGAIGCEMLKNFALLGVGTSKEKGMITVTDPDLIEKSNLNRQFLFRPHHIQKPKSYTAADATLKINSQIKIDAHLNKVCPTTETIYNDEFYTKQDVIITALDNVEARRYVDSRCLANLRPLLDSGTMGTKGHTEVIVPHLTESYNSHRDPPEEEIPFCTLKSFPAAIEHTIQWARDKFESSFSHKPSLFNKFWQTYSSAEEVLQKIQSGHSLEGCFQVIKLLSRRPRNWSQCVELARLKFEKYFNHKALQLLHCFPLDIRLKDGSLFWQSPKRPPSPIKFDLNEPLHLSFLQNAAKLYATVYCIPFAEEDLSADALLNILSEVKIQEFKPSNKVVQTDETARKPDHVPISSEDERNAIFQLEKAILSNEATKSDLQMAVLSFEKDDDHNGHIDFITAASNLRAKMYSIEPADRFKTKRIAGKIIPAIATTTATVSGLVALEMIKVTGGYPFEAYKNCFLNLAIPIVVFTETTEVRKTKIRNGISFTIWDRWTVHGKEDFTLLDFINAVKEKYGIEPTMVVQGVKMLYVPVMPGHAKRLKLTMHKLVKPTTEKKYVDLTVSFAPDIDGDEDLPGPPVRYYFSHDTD

[9] = biological target: Geranylgeranyl transferase type I (Homo sapiens, UniProt P49354+P53609); assay: Inhibition of GGTase1 isolated from Kirsten virus-transformed human osteosarcoma cells using biotin-YRASNRSCAIL peptide as substrate after 120 mins in presence of [ 1-[ 3 H](n)]geranylgeranylpyrophosphate by scintillation proximity assay

SMILES: CCNC1=N[C@@H]2[C@@H](O)[C@H](O)[C@@H](CO)O[C@@H]2S1
EC50 (Protein O-GlcNAcase): 30 nM

SMILES: C=C(C)[C@H](CC=C(C)C)C[C@]12C[C@H](CC=C(C)C)C(C)(C)[C@](CC=C(C)C)(C(=O)C(C(=O)c3ccc(O)c(O)c3)=C1O)C2=O
IC50 [3]: 7000 nM

SMILES: Nc1nnc(Sc2ncc([N+](=O)[O-])s2)s1
IC50 [4]: 700 nM

SMILES: CN1C(=O)[C@]23CC4=CC=C[C@H](O)[C@H]4N2C(=O)[C@@]1(CO)SS3 [GLIOTOXIN]
IC50 (Sharpin/RBCK1/RNF31): 510 nM

SMILES: O=C1CCc2c(Oc3ccc4c(c3)[C@@H]3[C@H](O4)[C@H]3c3nc4ccc(C(F)(F)F)cc4[nH]3)ccnc2N1 [LIFIRAFENIB]
IC50 [5]: 23 nM

SMILES: NS(=O)(=O)OC[C@@H]1C[C@@H](n2ccc3c(N[C@H]4CCc5ccccc54)ncnc32)C[C@@H]1O [PEVONEDISTAT]
IC50 [6]: > 1000 nM | IC50 [7]: > 1000 nM | IC50 (SUMO-activating enzyme): > 1000 nM | IC50 [8]: > 1000 nM

SMILES: Cn1cncc1[C@@](N)(c1ccc(Cl)cc1)c1ccc2c(c1)c(-c1cccc(Cl)c1)cc(=O)n2C [TIPIFARNIB]
IC50 [9]: > 1000 nM

Now from value to compound:

IC50 [1]: 0.5 nM
SMILES: COC(=O)[C@H](CCSC)NC(=O)c1ccc(NC[C@@H](N)CS)cc1-c1ccccc1

IC50 [2]: 1700 nM
SMILES: COCC(=O)N[C@@H](Cc1ccc(-c2cc(Cl)cc(Cl)c2)cc1)[C@H](O)[C@@H](O)C(=O)O

IC50 [1]: 1.4 nM
SMILES: CSCC[C@@H](NC(=O)c1ccc(CNCc2c[nH]cn2)cc1-c1ccccc1C)C(=O)O
